The data set deals with erythrocytes of human peripheral whole blood. The experiment in a line: hemolysis assay. The following applies: photograph of the microplate before absorbance reading. Format: cell-based. As to the method: The hemolysis assay is a required biocompatibility test for all blood-contacting devices. […] The hemolysis assay protocol we used was adapted from the one used by Bae and coworkers (Bae, I.-H., Park, I.-K., Park, D. S., Lee, H. and Jeong, M. H. 2012. Journal of Materials Science: Materials in Medicine 23 (5): 1259-1269.) as detailed below.
Coated and bare CoCr disks were placed in the wells of a 96-well plate and sterilized by a ten minute incubation in 70° ethanol. The disks were rinsed several times in water prior to a final wash in physiological saline solution (0.9% NaCl). […]
Disk-free wells were used as negative controls and 1% Triton X-100 (which causes the lysis of most erythrocytes through the dissolution of their plasma cell membrane) was added in blood-containing positive control wells. […] Absorbance was measured at 540 nm in a plate reader spectrophotometer (Infinite 200 PRO, TECAN). 540 nm corresponds to the absorbance peak of free hemoglobin, which is released by hemolysis from the erythrocytes. The value of the absorbance at 540 nm is therefore directly proportional to the extent of hemolysis caused by the sample disks in the experimental wells. […]
For each experiment, these observations were quantified by absorbance reading at 540 nm, and the measurements were normalized using the values obtained with the positive and negative controls, according to the following formula: […]

Triton X-100: the “macroscopic colour of platelet-poor plasma (hemolysis)” value is “effective hemolysis”.

The record behind these values is patent US20220001083A1, “METHOD FOR THE MODIFICATION OF A DEVICE SURFACE BY GRAFTING A CD31-DERIVED PEPTIDE ONTO THE SURFACE OF SAID DEVICE” (BALT EXTRUSION, priority 2018, published 2022).
